The source of these data is patent publication US11225469B2, “Inhibitors of phosphoglycerate dehydrogenase (PHGDH) and uses thereof” (Whitehead Institute for Biomedical Research, priority 2015, dated 2022).

This assay deals with PHGDH (Homo sapiens (Human), UniProt O43175). The experiment in a line: PHGDH inhibition, coupled assay with PSAT1/PSPH and diaphorase/resazurin readout. The format is biochemical. The following applies: Table E9; mixture with PSAT1, PSPH; diaphorase/resazurin reporter.
Chain of PHGDH (O43175 whole entry): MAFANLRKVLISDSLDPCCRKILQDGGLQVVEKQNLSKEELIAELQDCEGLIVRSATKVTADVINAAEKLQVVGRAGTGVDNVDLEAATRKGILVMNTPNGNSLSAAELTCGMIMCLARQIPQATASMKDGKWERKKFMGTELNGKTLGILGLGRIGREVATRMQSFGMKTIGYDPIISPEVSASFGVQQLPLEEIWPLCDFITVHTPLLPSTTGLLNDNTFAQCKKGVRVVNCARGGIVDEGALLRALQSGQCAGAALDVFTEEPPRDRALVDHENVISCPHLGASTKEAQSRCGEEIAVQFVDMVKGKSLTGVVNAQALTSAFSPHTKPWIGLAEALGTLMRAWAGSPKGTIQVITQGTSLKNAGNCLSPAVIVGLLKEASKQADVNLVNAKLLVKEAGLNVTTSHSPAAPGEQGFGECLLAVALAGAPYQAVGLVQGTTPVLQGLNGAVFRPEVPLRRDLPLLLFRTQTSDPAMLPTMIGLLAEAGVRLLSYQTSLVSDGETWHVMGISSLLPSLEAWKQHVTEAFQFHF
Take `Cc1ccnc(NC(=S)N2CCN(c3ccc(Cl)c(Cl)c3)CC2)c1` [Compound 173]: the IC50 was 5 to 10 µM.

For the compound `Cc1nc(CN(C)c2ncnc3ccc(-c4ccc5[nH]ncc5c4)cc23)cs1` [Compound 222], the IC50 was ≥ 20 µM.

Regarding `Cc1ccc(N2CCN(C(=S)Nc3cc(C)ccn3)CC2)cc1` [Compound 11], the IC50 was ≥ 20 µM.

`Cc1cc(C)nc(NC(=S)N2CCN(Cc3ccc(C(F)(F)F)cc3)[C@H](C)C2)c1` [Compound 298]: the IC50 was < 5 µM.

For `Cc1cc(C)nc(NC(=S)N2CCN(c3cnccn3)CC2)c1` [Compound 118], the IC50 was ≥ 20 µM.

With `Cc1cccc2nc(NC(=S)N3CCN(c4cccc(C(F)(F)F)c4)CC3)[nH]c12` [Compound 247], the IC50 is < 5 µM.

For the compound `Cc1cc(C)nc(NC(=S)N2CCN(c3ccc(Cl)cc3Cl)CC2)c1` [Compound 68], the IC50 fell in the range of 5 to 10 µM.

On to `Cc1cc(C)nc(NC(=S)N2CCN(c3ccc(Cl)c(Cl)c3)CC2)c1` [Compound 92], for which the IC50 is ≥ 20 µM.

For the compound `Cc1cc(C)nc(NC(=S)N2CCN(c3nncs3)CC2)c1` [Compound 131], the IC50 was ≥ 20 µM.

For the compound `Cc1ccnc(NC(=S)NCCN(C)c2cccc(C(F)(F)F)c2)c1` [Compound 21], the IC50 was ≥ 20 µM.

Regarding `Cc1cc(C)nc(NC(=S)N2CCC(NC(=O)c3cccc(C(F)(F)F)c3)CC2)c1` [Compound 263], the half-maximal inhibitory concentration (IC50) is < 5 µM.

As for `Cc1cc(C)nc(NC(=S)N2CCN(c3ccc(Cl)cc3[N+](=O)[O-])CC2)c1` [Compound 218], the half-inhibitory concentration (IC50) is 5 to 10 µM.

In the case of `Cc1ccnc(NC(=S)NC2CN(c3cccc(C(F)(F)F)c3)C2)c1` [Compound 47], the IC50 was ≥ 20 µM.

Consider `COc1ccnc(NC(=S)N2CCN(c3cccc(Cl)c3Cl)CC2)c1` [Compound 180], for which the IC50 was in the range of 5 to 10 µM.

As for `COc1ccccc1N[S+](=O)([O-])c1cc(NC(=O)c2ccc3ccccc3n2)ccc1N1CCCC1` [Compound 249], the IC50 was ≥ 20 µM.

Consider `Cc1ccnc(NC(=S)NC2CCCN(c3cccc(C(F)(F)F)c3)C2)c1` (stereo not drawn) [Compound 54], for which the IC50 is 5 to 10 µM.

As to `Cc1cc(C)nc(NC(=S)N2CCN(Cc3cccc(Br)c3)CC2)c1` [Compound 282], the IC50 is 10 to 20 µM.

Turning to `Cc1cc(C)nc(NC(=S)N2CCN(c3ccccc3C#N)CC2)c1` [Compound 89], the IC50 lay in the range of 10 to 20 µM.

With `Cc1cc(C)nc(NC(=S)N2CCN(c3ccc(F)c(Cl)c3)CC2)c1` [Compound 215], the IC50 lay in the range of 5 to 10 µM.

With `Cc1cc(C)nc(NC(=S)N2CCN(c3nc4ccccc4o3)CC2)c1` [Compound 105], the IC50 is 10 to 20 µM.

`Cc1ccnc(NC(=S)N2CCc3ccccc3C2)c1` [Compound 51]: the IC50 was ≥ 20 µM.

On to `Cc1cc(C)nc(NC(=S)N2CCN(Cc3ccc(OC(F)(F)F)cc3)CC2)c1` [Compound 296], for which the IC50 is < 5 µM.

Turning to `O=C(Nc1cccc([S+](=O)([O-])Nc2ccccc2F)c1)c1cccs1` [Compound 245], the IC50 was ≥ 20 µM.

Consider `Cc1cc(C)nc(NC(=S)N2CCN(c3cccc4ccncc34)CC2)c1` [Compound 149], for which the IC50 fell in the range of 10 to 20 µM.

As to `FC(F)(F)c1cccc(N2CCN(C(=S)Nc3ncnc4ccccc34)CC2)c1` [Compound 143], the IC50 was 5 to 10 µM.

As to `Cc1cc(C)nc(NC(=S)N2CCN(c3ncc(Cl)cc3Cl)CC2)c1` [Compound 81], the IC50 lay in the range of 5 to 10 µM.

As for `Cc1cc(C)nc(NC(=S)N2CCN(c3ccc(F)c(F)c3)CC2)c1` [Compound 214], the IC50 fell in the range of 5 to 10 µM.

Consider `Cc1cc(C)nc(NC(=S)N2CCN(Cc3ccc(Cl)cc3)CC2)c1` [Compound 280], for which the IC50 lay in the range of 10 to 20 µM.

Take `Cc1cc(C)nc(NC(=S)N2CCN(c3ncc(C(F)(F)F)cc3Cl)CC2)c1` [Compound 111]: the IC50 was in the range of 5 to 10 µM.

Regarding `COc1ccnc(NC(=S)N2CCN(c3ccc(Cl)c(Cl)c3)CC2)c1` [Compound 182], the concentration for half-maximal inhibition (IC50) lay in the range of 5 to 10 µM.

With `Cc1cc(C)nc(NC(=S)N2CCN(Cc3cccc(OC(F)(F)F)c3)CC2)c1` [Compound 299], the IC50 is < 5 µM.

As to `Cc1cc(C)nc(NC(=S)N2CCC(Nc3cccc(C(F)(F)F)c3)CC2)c1` [Compound 250], the IC50 is < 5 µM.

As for `FC(F)(F)c1cccc(N2CCN(C(=S)Nc3nc[nH]n3)CC2)c1` [Compound 233], the IC50 was 5 to 10 µM.

`CCN1CCN(C(=S)c2ccc(O)cc2)CC1` [Compound 15]: the IC50 is ≥ 20 µM.

As to `Cc1cc(C)nc(NC(=S)N2CCN(c3ccc(Cl)cc3[S+](C)(=O)[O-])CC2)c1` [Compound 115], the IC50 was in the range of 10 to 20 µM.

For `Cc1ccnc(NC(=S)N2CCc3cc(C(F)(F)F)ccc3C2)c1` [Compound 61], the IC50 was 10 to 20 µM.

On to `Cc1ccnc(NC(=S)N2CCN(c3ccc(Br)cc3)CC2)c1` [Compound 9], for which the 50% inhibitory concentration (IC50) is ≥ 20 µM.

For the compound `Cc1ccnc(NC(=S)N2CCN(c3ccc(N)cc3)CC2)c1` [Compound 17], the IC50 was ≥ 20 µM.

As for `COc1cccc(NC(=S)N2CCN(c3ncc(C(F)(F)F)cc3Cl)CC2)n1` [Compound 195], the IC50 was < 5 µM.

On to `Cc1cccc(N2CCN(C(=S)Nc3cc(C)ccn3)CC2)c1` [Compound 39], for which the IC50 fell in the range of 10 to 20 µM.

As for `Cc1cc(C)nc(NC(=S)N2CCN(c3ccc(-c4ccccc4)cc3)CC2)c1` [Compound 133], the IC50 is ≥ 20 µM.

For the compound `Cc1cc(C)nc(NC(=S)N2CCN(c3ccc(Cl)c(Cl)c3Cl)CC2)c1` [Compound 221], the IC50 was ≥ 20 µM.

Turning to `COc1ccnc(NC(=S)N2CCN(c3cccc(C(F)(F)F)n3)CC2)c1` [Compound 184], the IC50 fell in the range of 5 to 10 µM.

Take `COc1ccnc(NC(=S)N2CCN(c3ncc(C(F)(F)F)cc3Cl)CC2)c1` [Compound 185]: the IC50 fell in the range of 5 to 10 µM.

As to `COc1cccc(CN2CCN(C(=S)Nc3cc(C)cc(C)n3)CC2)c1` [Compound 290], the IC50 was 10 to 20 µM.

Take `FC(F)(F)c1cccc(N2CCN(C(=S)Nc3nc[nH]n3)CC2)c1` [Compound 234]: the IC50 was ≥ 20 µM.

For the compound `Cc1cc(C)nc(NC(=S)N2CCN(c3cc(C(F)(F)F)cc(C(F)(F)F)c3)CC2)c1` [Compound 64], the IC50 lay in the range of 5 to 10 µM.

Consider `Cc1cc(C)nc(NC(=S)N2CCN(CC(C)(C)C)CC2)c1` [Compound 269], for which the IC50 is < 5 µM.

As to `Cc1cc(C)nc(NC(=S)N2CCN(Cc3ccc(Br)cc3)CC2)c1` [Compound 281], the IC50 was in the range of 10 to 20 µM.

Regarding `Cc1cc(C)cc(N2CCN(C(=S)Nc3cc(C)cc(C)n3)CC2)c1` [Compound 213], the IC50 lay in the range of 10 to 20 µM.

As for `Cc1cc(C)nc(NC(=S)N2CCN(c3ccc(N[S+](C)(=O)[O-])nn3)CC2)c1` [Compound 83], the IC50 is ≥ 20 µM.

As to `Cc1ccnc(NC(=S)N2CCN(c3ccc(C#N)cc3)CC2)c1` [Compound 10], the IC50 was ≥ 20 µM.

As for `Cc1cc(C)nc(NC(=S)N2CCN(c3cncs3)CC2)c1` [Compound 157], the IC50 was ≥ 20 µM.

`FC(F)(F)c1cc(N2CCN(C(=S)Nc3cc(Cl)ccn3)CC2)cc(C(F)(F)F)c1` [Compound 198]: the IC50 is ≥ 20 µM.

For the compound `Cc1cc(C)nc(NC(=S)N2CCN(c3nccs3)CC2)c1` [Compound 87], the IC50 is ≥ 20 µM.

Regarding `COc1ccc2nc(NC(=S)N3CCN(c4cccc(C(F)(F)F)c4)CC3)[nH]c2c1` [Compound 240], the IC50 is ≥ 20 µM.

In the case of `Cc1cc(C)nc(NC(=S)N2CCN(c3cccc(C(F)(F)F)c3)CC2)c1` [Compound 24], the IC50 was 5 to 10 µM.

Take `Cc1cc(C)nc(NC(=S)N2CCN(c3ccc4nccn4c3)CC2)c1` [Compound 162]: the IC50 was ≥ 20 µM.

Turning to `Cc1ccnc(NC(=S)N2CCN(C)CC2)c1` [Compound 16], the IC50 is ≥ 20 µM.

Regarding `Cc1cc(C)nc(NC(=S)N2CCN(c3cccc4ccccc34)CC2)c1` [Compound 69], the IC50 was in the range of 5 to 10 µM.

On to `COc1cccc(NC(=S)N2CCN(c3ccccc3C(F)(F)F)CC2)n1` [Compound 193], for which the IC50 was < 5 µM.

As to `Cc1cc(C)nc(NC(=S)N2CCN(c3cnc4nccn4c3)CC2)c1` [Compound 160], the IC50 is ≥ 20 µM.

As for `FC(F)(F)c1cccc(N2CCN(C(=S)Nc3ccccn3)CC2)c1` [Compound 35], the IC50 was in the range of 5 to 10 µM.

`Cc1ccnc(NC(=S)N2CCN(c3cccc(N(C)C)c3)CC2)c1` [Compound 6]: the IC50 fell in the range of 10 to 20 µM.

`COc1cc(N2CCN(C(=S)Nc3cc(C)cc(C)n3)CC2)cc(C(F)(F)F)c1` [Compound 136]: the IC50 lay in the range of 10 to 20 µM.

With `FC(F)(F)c1cccc(N2CCN(C(=S)Nc3cccnc3)CC2)c1` [Compound 30], the IC50 is < 5 µM.

On to `Cc1cc(C)nc(NC(=S)N2CCN(Cc3ccc(C(F)(F)F)cc3)C(C(=O)O)C2)c1` (stereo not drawn) [Compound 295, 4-((4,6-dimethylpyridin-2-yl)carbamothioyl)-1-(4-(trifluoromethyl)benzyl)piperazine-2-carboxylic acid], for which the IC50 was in the range of 5 to 10 µM.

For `Cc1cc(C)nc(NC(=S)N2CCN(c3ccc([N+](=O)[O-])cc3Cl)CC2)c1` [Compound 217], the IC50 was in the range of 10 to 20 µM.

On to `COc1cccc(NC(=S)N2CCN(c3ccc4ccccc4n3)CC2)n1` [Compound 196], for which the concentration for half-maximal inhibition (IC50) is ≥ 20 µM.

Consider `COc1cccc(NC(=S)N2CCN(c3ccc(C(F)(F)F)cc3[N+](=O)[O-])CC2)n1` [Compound 192], for which the IC50 was in the range of 10 to 20 µM.

Regarding `N=C(NC(=S)N1CCN(c2cccc(C(F)(F)F)c2)CC1)c1ccccn1` [Compound 238], the IC50 is ≥ 20 µM.

With `COc1cc(NC(=S)N2CCN(c3cccc(C(F)(F)F)c3)CC2)nc2ccccc12` [Compound 130], the IC50 lay in the range of 10 to 20 µM.

`Cc1cc(C)nc(Nc2nnc(N3CCN(c4cccc(C(F)(F)F)c4)CC3)s2)c1` [Compound 125]: the IC50 was ≥ 20 µM.

For `Cc1cc(C)nc(NC(=S)N2CCC(C(=O)N3CCOCC3)CC2)c1` [Compound 257], the IC50 was ≥ 20 µM.

Turning to `Cc1cc(C)nc(NC(=S)N2CCN(Cc3ccc(F)cc3)CC2)c1` [Compound 279], the IC50 was 10 to 20 µM.

Turning to `Cc1ccnc(NC(=S)N2CCN(c3ccc(C(F)(F)F)cc3[N+](=O)[O-])CC2)c1` [Compound 174], the IC50 fell in the range of 5 to 10 µM.

Turning to `Cn1c(NC(=S)N2CCN(c3cccc(C(F)(F)F)c3)CC2)nc2ccccc21` [Compound 229], the IC50 was 5 to 10 µM.

Consider `Cc1cc(C)nc(NC(=S)N2CCN(c3ccc4cn(C)nc4c3)CC2)c1` [Compound 129], for which the IC50 was ≥ 20 µM.
